# Reference: patent US9765034B2, “5-halogenopyrazole biphenylcarboxamides” (BAYER CROPSCIENCE AG, priority 2012, dated 2017)
# Key:
# Uromyces appendiculatus = assay: In vivo preventive test on Uromyces appendiculatus (bean rust); conditions: bean plants, preventive spray, 500 ppm, grading 11 days after contamination
# Procedure: Example: In Vivo Preventive Test on Uromyces appendiculatus (Bean Rust) […] Bean plants (“Saxa” variety), sown in starter cups on a 50/50 peat soil-pozzolana substrate and grown at 24° C., are treated at the 2-leaf stage (9 cm height) by spraying with the active ingredient prepared as described above. Plants, used as controls, are treated with the mixture of acetone/tween/DMSO/water not containing the active material. After 24 hours, the plants are contaminated by spraying the leaves with an aqueous suspension of Uromyces appendiculatus spores (150 000 spores per ml). […] Grading (% of efficacy) is carried out 11 days after the contamination, in comparison with the control plants. Under these conditions, good (at least 70%) or total protection is observed at a dose of 500 ppm with the following compounds: […]
# Puccinia recondita = assay: In vivo preventive test on Puccinia recondita (brown rust on wheat); conditions: wheat plants, preventive spray, 500 ppm, grading 12 days after contamination
# Procedure: Example: In Vivo Preventive Test on Puccinia recondita (Brown Rust on Wheat) […] Wheat plants (“Scipion” variety), sown in starter cups on a 50/50 peat soil-pozzolana substrate and grown at 22° C., are treated at the 1-leaf stage (10 cm height) by spraying with the active ingredient prepared as described above. Plants, used as controls, are treated with the mixture of acetone/tween/DMSO/water not containing the active material. After 24 hours, the plants are contaminated by spraying the leaves with an aqueous suspension of Puccinia […] spores (100 000 spores per ml). […] Grading (% of efficacy) is carried out 12 days after the contamination, in comparison with the control plants. Under these conditions, good (at least 70%) or total protection is observed at a dose of 500 ppm with the following compounds: […]
# Sphaerotheca fuliginea = assay: In vivo preventive test on Sphaerotheca fuliginea (powdery mildew on cucurbits); conditions: gherkin plants, preventive spray, 500 ppm, grading 12 days after contamination
# Procedure: Example: In Vivo Preventive Test on Sphaerotheca fuliginea (Powdery Mildew on Cucurbits) […] Gherkin plants (“Vert petit de Paris” variety), sown in starter cups on a 50/50 peat soil-pozzolana substrate and grown at 24° C., are treated at the Z11 cotyledon stage by spraying with the active ingredient prepared as described above. Plants, used as controls, are treated with the mixture of acetone/tween/DMSO/water not containing the active material. After 24 hours, the plants are contaminated by spraying the cotyledons with an aqueous suspension of Sphaerotheca fuliginea spores (100 000 spores per ml). The spores are collected from infected plants. […] Grading (% of efficacy) is carried out 12 days after the contamination, in comparison with the control plants. Under these conditions, good (at least 70%) or total protection is observed at a dose of 500 ppm with the following compounds: […]
# Septoria tritici = assay: In vivo preventive test on Septoria tritici (leaf spot on wheat); conditions: wheat plants, preventive spray, 500 ppm, grading 24 days after contamination
# Procedure: Example: In Vivo Preventive Test on Septoria tritici (Leaf Spot on Wheat) […] Wheat plants (“Scipion” variety), sown in starter cups on a 50/50 peat soil-pozzolana substrate and grown at 22° C., are treated at the 1-leaf stage (10 cm height) by spraying with the active ingredient prepared as described above. Plants, used as controls, are treated with the mixture of acetone/tween/DMSO/water not containing the active material. After 24 hours, the plants are contaminated by spraying the leaves with an aqueous suspension of cryopreserved Septoria tritici spores (500 000 spores per ml). […] Grading (% of efficacy) is carried out 24 days after the contamination, in comparison with the control plants. Under these conditions, good (at least 70%) or total protection is observed at a dose of 500 ppm with the following compounds: […]
# [1] = logP by HPLC on reversed phase columns (EEC directive 79/831 Annex V.A8); conditions: method [a]: LC-MS at pH 2.7, 0.1% formic acid in water / acetonitrile gradient 10% to 95%
# Pyrenophora teres = assay: In vivo preventive test on Pyrenophora teres (net blotch on barley); conditions: barley plants, preventive spray, 500 ppm, grading 14 days after contamination
# Procedure: Example: In Vivo Preventive Test on Pyrenophora teres (Net Blotch on Barley) […] Barley plants (“Plaisant” variety), sown in starter cups on a 50/50 peat soil-pozzolana substrate and grown at 22° C., are treated at the 1-leaf stage (10 cm height) by spraying with the active ingredient prepared as described above. Plants, used as controls, are treated with the mixture of acetone/tween/DMSO/water not containing the active material. After 24 hours, the plants are contaminated by spraying the leaves with an aqueous suspension of Pyrenophora teres spores (12 000 spores per ml). The spores are collected from a 12-day-old culture. […] Grading (% of efficacy) is carried out 14 days after the contamination, in comparison with the control plants. Under these conditions, good (at least 70%) or total protection is observed at a dose of 500 ppm with the following compounds: […]
# Alternaria brassicae = assay: In vivo preventive test on Alternaria brassicae (leaf spot on radish); conditions: radish plants, preventive spray, 500 ppm, grading 6 days after contamination
# Procedure: Example: In Vivo Preventive Test on Alternaria brassicae (Leaf Spot on Radish) […] Radish plants (“Pernod Clair” variety), sown in starter cups on a 50/50 peat soil-pozzolana substrate and grown at 17° C., are treated at the cotyledon stage by spraying with the active ingredient prepared as described above. Plants, used as controls, are treated with the mixture of acetone/tween/DMSO/water not containing the active material. After 24 hours, the plants are contaminated by spraying the cotyledons with an aqueous suspension of Alternaria brassicae spores (50 000 spores per ml). The spores are collected from a 15-day-old culture. […] Grading (% of efficacy) is carried out 6 days after the contamination, in comparison with the control plants. Under these conditions, good (at least 70%) or total protection is observed at a dose of 500 ppm with the following compounds: […]
# Botrytis cinerea = assay: In vivo preventive test on Botrytis cinerea (grey mould); conditions: gherkin plants, preventive spray, 500 ppm, grading 4 to 5 days after contamination
# Procedure: Example: In Vivo Preventive Test on Botrytis cinerea (Grey Mould) […] Gherkin plants (“Vert petit de Paris” variety), sown in starter cups on a 50/50 peat soil-pozzolana substrate and grown at 24° C., are treated at the Z11 cotyledon stage by spraying with the active ingredient prepared as described above. Plants, used as controls, are treated with the mixture of acetone/tween/DMSO/water not containing the active material. After 24 hours, the plants are contaminated by spraying the cotyledons with an aqueous suspension of cryopreserved Botrytis cinerea spores (50 000 spores per ml). The spores are suspended in a nutrient solution composed of 10 g/L of PDB, 50 g/L of D-Fructose, 2 g/L of NH4NO3 and 1 g/L of KH2PO4. […] Grading (% of efficacy) is carried out 4 to 5 days after the contamination, in comparison with the control plants. Under these conditions, good (at least 70%) or total protection is observed at a dose of 500 ppm with the following compounds: […]
SMILES,Eff. % (Uromyces appendiculatus) [%],Eff. % (Puccinia recondita) [%],Eff. % (Sphaerotheca fuliginea) [%],Eff. % (Septoria tritici) [%],logP [1],Eff. % (Pyrenophora teres) [%],Eff. % (Alternaria brassicae) [%],Eff. % (Botrytis cinerea) [%]
CC(=NOC(C)C)c1ccc(-c2ccccc2NC(=O)c2c(C(F)F)nn(C)c2Cl)cc1 [Example 1],100,98,100,75,5.03[a],,,
CCON=C(C)c1ccc(-c2ccccc2NC(=O)c2c(C(F)F)nn(C)c2Cl)cc1 [Example 2],100,98,100,,4.58[a],,,
CON=Cc1ccc(-c2ccccc2NC(=O)c2c(C(F)F)nn(C)c2Cl)c(Cl)c1 [Example 10],100,97,100,,4.05[a],,,
CCON=C(C)c1ccc(-c2ccccc2NC(=O)c2c(C(F)F)nn(C)c2F)cc1 [Example 11],100,94,100,,4.24[a],96,97,
CCON=Cc1c(F)cc(-c2ccccc2NC(=O)c2c(C(F)F)nn(C)c2Cl)cc1F [Example 14],100,100,100,,4.04[a],100,100,70
CCON=C(C)c1ccc(-c2ccccc2NC(=O)c2c(C(F)F)nn(C)c2F)cc1 [Example 16],100,94,,,4.29[a],79,100,80
CCON=Cc1ccc(-c2ccccc2NC(=O)c2c(C(F)F)nn(C)c2Cl)cc1Cl [Example 17],100,97,100,,4.64[a],96,98,
CCON=Cc1ccc(-c2cc(F)ccc2NC(=O)c2c(C(F)F)nn(C)c2Cl)cc1 [Example 19],100,97,100,,4.11[a],80,88,70
CON=Cc1c(F)cc(-c2ccccc2NC(=O)c2c(C(F)F)nn(C)c2Cl)cc1F [Example 23],100,98,100,97,3.61[a],97,97,
CON=Cc1ccc(-c2ccccc2NC(=O)c2c(C(F)F)nn(C)c2Cl)cc1C(F)(F)F [Example 24],100,100,100,92,4.25[a],97,92,
CCON=Cc1ccc(-c2ccccc2NC(=O)c2c(C(F)F)nn(C)c2Cl)cc1C(F)(F)F [Example 26],100,97,100,,4.65[a],90,,
CON=Cc1ccc(-c2ccccc2NC(=O)c2c(C(F)F)nn(C)c2Cl)cc1F [Example 33],99,100,100,,3.75[a],96,88,95
CCON=C(C)c1ccc(-c2ccccc2NC(=O)c2c(C(F)F)nn(C)c2Cl)cc1 [Example 34],100,89,,,4.49[a],80,,
C#CCON=C(C)c1ccc(-c2cccc(NC(=O)c3c(C(F)F)nn(C)c3Cl)c2)cc1 [Example 35],98,,,75,4.01[a],,,
CCON=Cc1ccc(-c2ccccc2NC(=O)c2c(C(F)F)nn(C)c2Cl)c(Cl)c1 [Example 36],94,97,100,,4.49[a],90,81,95
CCON=Cc1ccc(-c2ccccc2NC(=O)c2c(C(F)F)nn(C)c2Cl)c(F)c1 [Example 37],97,97,100,,3.65[a],100,88,100
CON=Cc1ccc(-c2ccccc2NC(=O)c2c(C(F)F)nn(C)c2Cl)cc1Cl [Example 38],100,97,100,,4.19[a],96,94,
CON=C(C)c1cccc(-c2cccc(NC(=O)c3c(C(F)F)nn(C)c3F)c2)c1 [Example 42],97,89,,,3.85[a],70,,
CCON=C(C)c1cccc(-c2cccc(NC(=O)c3c(C(F)F)nn(C)c3Cl)c2)c1 [Example 43],100,89,,,4.49[a],80,,
CCON=C(C)c1cccc(-c2cccc(NC(=O)c3c(C(F)F)nn(C)c3F)c2)c1 [Example 44],100,94,,,4.29[a],79,100,80
CON=C(C)c1cccc(-c2cccc(NC(=O)c3c(C(F)F)nn(C)c3Cl)c2)c1 [Example 45],100,94,,,4.04[a],80,,
